Data set [1] has as its system euploid and Ts65Dn mice. The data set can be described thus: Anxiety-related behavior in the elevated plus maze. Type of data set: in vivo. The conditions noted are these: for Time spent in the open arms of the elevated plus-maze: acute, one single 15 mg/kg i.p. injection. The procedure:
FIG. 6 depicts results from an anxiety-related behavior study of α5IA. Anxiety was assessed in the elevated plus maze, in both euploid and Ts65Dn mice under placebo or α5IA. Time spent in the open arms of the elevated plus-maze was taken as a measure of anxiety levels.
Modulation of anxiety-related behaviors by α5IA was more precisely assessed using an elevated-plus maze, in a total of 42 mice, 30 min after i.p. injections (placebo: 11 euploid and 7 Ts65Dn mice; α5IA (15 mg/kg): 14 euploid and 10 Ts65Dn mice). The maze was constructed of black perspex (length, 28 cm; width, 5 cm; height from floor, 40 cm; overall luminosity in open arms: 70 1×) with two opposing open arms, and two enclosed arms equipped with three 16 cm high walls. Mice were placed in the central region of the maze and behavior was recorded for a 5 min period using the Any. Maze software that automatically calculates the time spent in the different parts of the maze (e.g., open and enclosed arms).
To explore the potential adversity of chronic injections of α5IA (5 mg/kg), another group of euploid mice was treated for two weeks (5 injections/week; 5 α5IA treated mice; 5 placebo-treated mice). After repeated treatment, these mice were evaluated in the elevated plus maze as described above.

For data set [2], the system named is euploid and Ts65Dn mice. The data set is described as follows: Locomotor activity and anxiety in the open field. Type of data set: in vivo. As for the experimental part: FIG. 7 depicts results from a locomotor activity and anxiety study of α5IA in Ts65Dn and euploid mice in the open field. Effects of α5IA (5 mg/kg) were evaluated on locomotion and anxiety in the open field.
Locomotor activity was evaluated in a total of 33 mice 30 min after i.p. injections (placebo: 8 euploid and 7 Ts65Dn mice; α5IA (5 mg/kg): 10 euploid and 8 Ts65Dn mice). Locomotion was measured in a square open field (50 cm×50 cm; luminosity: 30 lux) with black walls 30 cm high. Briefly, each animal was placed in the center of the arena and allowed to freely explore it for 10 min. Horizontal activity was monitored using the Any-Maze software. Time spent in the 10-cm wide peripheral zone and in the complementary 30 cm×30 cm central zone was recorded to evaluate anxiety.

Data set [3] relates to mice. The data set can be described thus: Anatomopathology after chronic treatment. Type of data set: in vivo. Particulars: 5 mg/kg, 5 injections/week for 5 weeks. As for the experimental part: FIG. 8 depicts results from a histological lesion study of α5IA after chronic treatment. Following chronic treatment with α5IA (5 mg/kg; 5 injections/week for 5 weeks), different organs were ablated and processed for routine histopathological examination. […] The same negative findings were observed following Periodic acid-Schiff staining of the tissues (not illustrated). […] The size and distribution of urine crystals (not illustrated) appeared to be very similar in the different groups. The scale bar represents 100 μm.
Mice treated for 2 weeks with α5IA and tested in the elevated plus maze were further treated for another 3 weeks. On the last day of treatment, urine samples were collected 2 hours after α5IA or placebo i.p. administration. Urine was stored at −20° C. before analysis. The day after, mice were injected i.p. with an overdose of sodium pentobarbital. Deeply anaesthetized mice received a PBS flush by means of an intracardiac perfusion. For anatomo-pathological examination, 3 additional euploid non-injected mice were also sacrificed. Liver, kidney, brain and spleen were dissected and fixed in a 10% formalin solution. Tissues were then paraffin-embedded and cut using a microtome (5 μm thick sections) before being processed for routine histopathological evaluation (hematein-eosin and Periodic acid-Schiff stainings).

The test system of data set [4] is euploid and Ts65Dn mice. The data set is described as follows: Novel object recognition (NOR) task. Type of data set: in vivo. As for the experimental part:
The testing protocol is a variant of the testing method according to Fernandez et al. 2007. The Object recognition protocol used to study learning and memory was performed on a 10 minutes period between the first presentation of the objects and the change of one object. Euploid and Ts65Dn mice were tested with or without α5IA treatment. The apparatus consisted of a black square arena (50×50 cm) located in a room under weak controlled luminosity (4-6 Lux) and constant 60 dB white noise. The first day, all mice (16 euploid and 16 Ts65Dn mice) were handled by the experimenter in the animal facility 2×3 min to familiarize them with human contact. On day 2, mice were placed for 20 min in the empty arena for getting used to the apparatus and test room. On day 3, four identical objects were placed symmetrically in the corners of the arena, 14 cm from the side walls. […]
During all open field sessions, mice were monitored using a videotracking system (Any-Maze™). Object exploration was manually scored with an ethological keyboard and defined as the orientation of the nose to the object at a distance<6 cm. […]
For the retention phase, the percent of time exploring familiar vs. novel objects was calculated to assess memory performance (a score of 50% corresponding to equal exploration times of the two objects indicated no object memory). […]
Discrimination ratio was calculated using the formula: […]

Data set [5] has as its target GABAA receptors α1, α2, α3 and α5 subtypes (Homo sapiens, UniProt P31644). Particulars: α5 subtype; cited from earlier work.
In data set [6] the test system is GABAA receptors α1, α2, α3 and α5 subtypes. The conditions noted are these: α1, α2 and α3 subtypes; cited from earlier work.
For data set [7], the system named is young and elderly subjects. The conditions noted are these: cited from earlier work.

Chain of GABAA receptors α1, α2, α3 and α5 subtypes (Homo sapiens, UniProt P31644) (P31644 32-462): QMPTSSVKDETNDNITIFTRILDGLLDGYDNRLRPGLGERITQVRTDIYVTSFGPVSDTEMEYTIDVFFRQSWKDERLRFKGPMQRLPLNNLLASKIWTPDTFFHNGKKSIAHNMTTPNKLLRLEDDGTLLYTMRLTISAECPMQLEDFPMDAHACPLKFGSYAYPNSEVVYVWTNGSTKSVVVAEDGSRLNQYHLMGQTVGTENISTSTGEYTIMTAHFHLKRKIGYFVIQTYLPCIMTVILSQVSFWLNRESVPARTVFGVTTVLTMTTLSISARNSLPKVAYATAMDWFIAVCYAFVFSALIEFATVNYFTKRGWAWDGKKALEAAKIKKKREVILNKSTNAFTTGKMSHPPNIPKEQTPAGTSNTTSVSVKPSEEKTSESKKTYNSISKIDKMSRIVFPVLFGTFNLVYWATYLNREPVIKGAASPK
Chain of GABAA receptors α1, α2, α3 and α5 subtypes (Homo sapiens, UniProt P31644) (P28472 26-473 partner): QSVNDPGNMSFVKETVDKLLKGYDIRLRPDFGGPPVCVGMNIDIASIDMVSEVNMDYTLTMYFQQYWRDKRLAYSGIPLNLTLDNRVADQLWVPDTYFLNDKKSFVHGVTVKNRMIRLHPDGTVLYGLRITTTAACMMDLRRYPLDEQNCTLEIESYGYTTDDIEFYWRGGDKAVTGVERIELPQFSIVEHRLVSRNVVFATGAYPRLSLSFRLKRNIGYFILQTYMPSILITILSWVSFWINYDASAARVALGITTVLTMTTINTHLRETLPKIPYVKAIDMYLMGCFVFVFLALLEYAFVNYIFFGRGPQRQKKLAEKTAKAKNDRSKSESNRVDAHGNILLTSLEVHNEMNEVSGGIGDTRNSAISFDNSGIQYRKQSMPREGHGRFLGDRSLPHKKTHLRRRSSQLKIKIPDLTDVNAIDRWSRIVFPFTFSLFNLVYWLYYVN
Chain of GABAA receptors α1, α2, α3 and α5 subtypes (Homo sapiens, UniProt P31644) (P18507 40-475 partner): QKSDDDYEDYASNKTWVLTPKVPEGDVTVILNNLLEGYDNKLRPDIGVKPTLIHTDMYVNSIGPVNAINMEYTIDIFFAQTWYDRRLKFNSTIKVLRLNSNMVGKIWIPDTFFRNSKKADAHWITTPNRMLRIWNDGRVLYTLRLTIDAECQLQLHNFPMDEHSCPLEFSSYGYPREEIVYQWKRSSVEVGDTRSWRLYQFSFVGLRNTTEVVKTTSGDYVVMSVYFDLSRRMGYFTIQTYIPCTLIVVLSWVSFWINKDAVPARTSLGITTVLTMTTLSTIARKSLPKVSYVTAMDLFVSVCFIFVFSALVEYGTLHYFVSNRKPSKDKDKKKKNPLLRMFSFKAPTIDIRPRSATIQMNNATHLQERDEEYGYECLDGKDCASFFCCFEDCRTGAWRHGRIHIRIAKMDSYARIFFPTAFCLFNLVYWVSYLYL

In the case of `Cc1cc(-c2nnc3c4ccccc4c(OCc4cn(C)nn4)nn23)no1` [α5IA, 3-(5-methylisoxazol-3-yl)-6-[(1-methyl-1,2,3-triazol-4-yl)methyloxy]-1,2,4-triazolo[3,4-a]phthalazine], the “Time spent in the open arms of the elevated plus-maze” value is listed as “significantly reduced the time spent in open arms” in data set [1] (Ts65Dn mice, p<0.05) and “did not modify the behavior” in data set [1] (euploid mice). The “anxiety levels in the elevated plus maze” value in data set [1] (semi-chronic, 5 mg/kg 5 times a week for 2 weeks, euploid mice, p>0.73) is “did not alter the anxiety levels”. For the same compound, the “locomotor activity and anxiety (periphery-to-center exploration ratio) in the open field” value in data set [2] (5 mg/kg, Ts65Dn and euploid mice) was “did not alter locomotor activity and anxiety”. For the same compound, in data set [2] (single injection 5 mg/kg, euploid and Ts65Dn mice), the “horizontal activity (traveled distances)” value is on record as “did not modify the gross locomotor activity”. Also, the “abnormal crystals in brain, hepatic and renal tissues under polarized light” value in data set [3] is listed as “lack of abnormal crystals”. Also, the histological lesions result in data set [3] (liver, kidney, brain) is reported as “did not induce any histological lesions”. Further, in data set [4] (Ts65Dn mice), the “object recognition performance compared to wild-type mice receiving a placebo” value was “above-normal object recognition performance”. In addition, the recognition performance entry in data set [4] (i.p. 5 mg/kg, 30 min before acquisition, both euploid and Ts65Dn mice) is reported as “largely improved their recognition performance”. The “efficacy at the α5 subtype” value in data set [5] was “exhibits inverse agonism”. The “efficacy at the α1, α2 and α3 subtypes” value in data set [6] is given as “low or antagonist efficacy”. Also, the tolerability entry in data set [7] was “well tolerated”.

(Values after patent publication US9078874B2, “Composition and method for treating cognitive impairments in down syndrom subjects” (Centre National De La Recherche Scientifique—CNRS, priority 2009, dated 2015).)
